Consider eight molecules from US12686690B2, “Macrocyclic urea orexin receptor agonists” (Merck Sharp & Dohme LLC, priority 2020, dated 2026).

This experiment addresses T1, hOX2R (Homo sapiens, UniProt O43614).
T1 construct: expressed in transfected cells; host or cells: CHO cells (G418 selection)
T1 sequence (O43614 1-444): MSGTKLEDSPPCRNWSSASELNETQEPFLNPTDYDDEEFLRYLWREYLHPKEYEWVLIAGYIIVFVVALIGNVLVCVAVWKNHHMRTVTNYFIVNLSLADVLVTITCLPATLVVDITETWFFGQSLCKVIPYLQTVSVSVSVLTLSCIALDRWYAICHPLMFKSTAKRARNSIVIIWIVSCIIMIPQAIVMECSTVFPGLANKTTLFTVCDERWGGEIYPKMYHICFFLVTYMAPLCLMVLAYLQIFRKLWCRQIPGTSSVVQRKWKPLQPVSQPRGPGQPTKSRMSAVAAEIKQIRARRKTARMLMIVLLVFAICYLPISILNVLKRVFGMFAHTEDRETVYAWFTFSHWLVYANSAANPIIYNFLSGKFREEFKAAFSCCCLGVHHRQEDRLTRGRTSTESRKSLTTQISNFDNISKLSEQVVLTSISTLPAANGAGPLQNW
The experiment in a line: hOX2R IPone assay (orexin receptor agonism). It counts as cell-based. The note with it: IPone readout; for hOX2R_Ipone max %act: maximal activation; for EC50: orexin receptor agonist, read-out: hOX2R_IPone EC50.

For orientation: EC50 means the concentration at which the effect is half-maximal. Take `CCN1C(=O)N[C@@H](CCC(F)(F)F)C/C=C\COc2nc(cn3ncnc23)-c2cc(ncc2OC)C1C(F)(F)F` (stereo partly drawn) [Example 33, (16S,18Z)-13-ethyl-8-methoxy-12-(trifluoromethyl)-16-(3,3,3-trifluoropropyl)-12,13,15,16,17,20-hexahydro-14H-6,22-(azeno)-11,7-(metheno) [1,2,4]triazolo[5,1-c] [1,4,10,13,15]oxatetra-azacycloicosin-14-one]: the hOX2R_Ipone max %act worked out at 98.8% and the half-maximal effective concentration (EC50) turned out to be 335 nM.
On the same counts, the results for `CCN1C(=O)NCCCCCOc2nc(cn3ncnc23)-c2cc(ncc2OC)C1C(F)(F)F` (stereo not shown) [Example 35, 13-ethyl-8-methoxy-12-(trifluoromethyl)-12,13,15,16,17,18,19,20-octahydro-14H-6,22-(azeno)-11,7-(metheno) [1,2,4]triazolo[5,1-c][1,4,10,13,15]oxatetra-azacycloicosin-14-one] are 82.8% and 4710 nM.
For the molecule `CCN1C(=O)N[C@@H](C(F)(F)F)CCCCOc2nc(cn3ncnc23)-c2cc(ncc2OC)C1C(F)(F)F` (stereo partly drawn) [Example 37, (16R)-13-ethyl-8-methoxy-12,16-bis(trifluoromethyl)-12,13,15,16,17,18,19,20-octahydro-14H-6,22-(azeno)-11,7-(metheno) [1,2,4]triazolo[5,1-c][1,4,10,13,15]oxatetra-azacycloicosin-14-one], the hOX2R_Ipone max %act is recorded as 77.3% and the concentration giving a half-maximal response (EC50) stood at 3010 nM.
Turning to `CCN1C(=O)N[C@@H](CC(F)(F)F)CCCCOc2nc(cn3ncnc23)-c2cc(ncc2OC)C1C(F)(F)F` (stereo partly drawn) [Example 38, (16R)-13-ethyl-8-methoxy-16-(2,2,2-trifluoroethyl)-12-(trifluoromethyl)-12,13,15,16,17,18,19,20-octahydro-14H-6,22-(azeno)-11,7-(metheno) [1,2,4]triazolo[5,1-c][1,4,10,13,15]oxatetra-azacycloicosin-14-one], the hOX2R_Ipone max %act was found to be 94.5% and the EC50 is 2390 nM.
On the same counts, the results for `CCN1Cc2cccc(c2)-c2cn3ccnc3c(n2)OCCCC[C@H](CCC(F)(F)F)NC1=O` [Example 43, (16R)-13-ethyl-16-(3,3,3-trifluoropropyl)-12,13,15,16,17,18,19,20-octahydro-14H-6,22-(azeno)-11,7-(metheno)imidazo[2,1-c][1,4,13,15]oxatriaza-cycloicosin-14-one] are 97.6% and 49.9 nM.
In the case of `CCN1Cc2ccc(OC)c(c2)-c2cn3ccnc3c(n2)OCCCC[C@H](CCC(F)(F)F)NC1=O` [Example 44, (16R)-13-ethyl-8-methoxy-16-(3,3,3-trifluoropropyl)-12,13,15,16,17,18,19,20-octahydro-14H-6,22-(azeno)-11,7-(metheno)imidazo[2,1-c][1,4,13,15]oxatriaza-cycloicosin-14-one], the hOX2R_Ipone max %act was 100.4% and the EC50 was determined as 1 nM.
As for `CCN1Cc2cc(c(OC)cn2)-c2cn3ccnc3c(n2)OCCCC[C@H](CCC(F)(F)F)NC1=O` [Example 45, (16R)-13-ethyl-8-methoxy-16-(3,3,3-trifluoropropyl)-12,13,15,16,17,18,19,20-octahydro-14H-6,22-(azeno)-11,7-(metheno)imidazo[2,1-c][1,4,10,13,15]oxatetra-azacycloicosin-14-one], the hOX2R_Ipone max %act was 100.1% and the concentration for a half-maximal effect (EC50) came to 14.1 nM.
The like results for `CCN1C(=O)N[C@@H](CCC(F)(F)F)CCCCOc2nc(nn3ccnc23)-c2cc(cnc2OC)[C@H]1C` [Example 46, (3R,7R,E)-4-ethyl-22-methoxy-3-methyl-7-(3,3,3-trifluoropropyl)-12-oxa-4,6-diaza-1(2,4)-imidazo[2,1-f][1,2,4]triazina-2(3,5)-pyridinacyclododecaphan-5-one] were, in that order, 99.9% and 9.9 nM.
